The values that follow come from article PMC11249646, “Small-Molecule Disruptors of the Interaction between Calcium- and Integrin-Binding Protein 1 and Integrin αIIbβ3 as Novel Antiplatelet Agents” (ACS Pharmacology & Translational Science, 2024).

The test system of data set [1] is P-selectin (CD62P) exposure on human platelets. Description: Thrombin-induced P-selectin (CD62P) exposure, flow cytometry. Format: cell-based. The conditions noted are these: various doses. The protocol:
[…]. These findings indicate that through the utilization of this FP assay, we successfully identified inhibitors of platelet function, which may warrant further assessment for their potential as antiplatelet agents.
Figure 6 Effect of compounds on human platelet activation. Representative platelet aggregation tracings of washed human platelet suspensions pretreated for 30 min at 37 °C with vehicle (DMSO) or compounds at indicated concentrations followed by activation with thrombin (0.03–0.1 U/mL). Panel (A): NCGC00071855. Panel (B–D): NCGC00351170. Panel (E): CD62P exposure was in the presence of NCGC00351170. Data represents mean ± SEM, n = 4 individual experiments; ns = non significant *P < 0.05, ***P < 0.001, ****P < 0.0001.
Whole blood was drawn by venipuncture from healthy adult volunteers (of both gender and race) with informed consent. Approval was obtained from the institutional review boards of Thomas Jefferson University, according to the Declaration of Helsinki. Blood was collected in acidified citrate dextrose as an anticoagulant. Platelet-rich plasma (PRP) and washed platelets were prepared, as previously described.[44] Platelet aggregation was performed using washed platelet suspensions containing 2 × 10^8 platelets/mL using a Chrono-Log Lumi-Aggregometer (Chrono-Log), as described previously.[11] Aggregation traces were recorded by using Aggrolink software (Chrono-Log). […]
A general note: In flow cytometry, cells or beads pass a laser one at a time.

A short description of data set [2]: In vitro ADME: PAMPA permeability.
In the next data set the target is T1, CIB1-(His)6 (Homo sapiens, UniProt Q99828).
T1 construct: made in house
T1 sequence (Q99828 1-191): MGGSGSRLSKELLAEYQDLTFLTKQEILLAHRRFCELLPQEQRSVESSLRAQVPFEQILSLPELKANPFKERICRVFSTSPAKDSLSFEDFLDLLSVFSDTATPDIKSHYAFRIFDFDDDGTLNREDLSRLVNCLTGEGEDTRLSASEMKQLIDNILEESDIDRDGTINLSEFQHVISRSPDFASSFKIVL
Nature of the data set: Microscale thermophoresis (MST) protein and small-molecule binding. The conditions noted are these: MST; fluorescently labeled CIB1-(His)6 50 nM; read-out: equilibrium dissociation constant (Kd). The procedure: Determining a direct measurement of a molecule’s binding interaction with its target is a vital parameter for characterizing a chemical probe. We employed microscale thermophoresis (MST) for this purpose, leveraging its sensitivity and capacity to deliver quantitative data on the binding interaction.[35] […] We began by testing increasing amounts of the compound(s) and incubating them with the fluorescently labeled CIB1-(His)6, followed by the detection of the MST traces on the NT automated instrument (for more details see Materials and Methods Section). […] We were able to rule out compound interference with the histidine tag on CIB1 and/or the fluorophore used for the MST assay by testing the compounds with a fluorescently labeled hexa-histidine peptide (Figure S8B).
The binding affinity of the compounds to the CIB1-(His)6 protein was evaluated using microscale thermophoresis (MST). The recombinant protein was labeled with a fluorophore using Monolith His-tag labeling RED-tris-NTA second Generation kit (Nanotemper Technologies, Munich, Germany) following the manufacturer’s protocol. Compounds were titrated in a 2-fold dilution series (16 points, final concentration range of 6.1 nM to 200 μM) and incubated with the same volume of 50 nM (final concentration; 25 nM RED-tris-NTA) labeled recombinant protein for 30 min at RT (20 μL final assay volume). […] The dissociation constant (Kd) values were calculated by fitting the thermophoresis signal at 20 s of the thermograph using the MO Affinity Analysis software (Nanotemper Technologies, Munich, Germany) and confirmed using GraphPad Prism.
A general note: Microscale thermophoresis detects binding through changes in fluorescence in a small temperature gradient.

The target of data set [3] is T2, CIB1 and αIIb interaction (CIB1-GST : F-αIIb peptide) (Homo sapiens, UniProt Q99828).
T2 construct: made in house; host or cells: BL-21 plus RIL cells (E. coli)
T2 sequence (Q99828 1-191): T1 sequence (Q99828 1-191)
Description: FP assay, 1536-well qHTS format (primary and confirmatory screen). Format: binding. A general note: In qHTS, concentration-response curves come from the screen itself.

For data set [4], the target named is T3, CIB1-(His)6 : F-αIIb peptide (Homo sapiens, UniProt Q99828).
T3 construct: made in house
T3 sequence (Q99828 1-191): T1 sequence (Q99828 1-191)
Description: MST competitive binding study. The conditions noted are these: 200 nM F-αIIb, 4 μM CIB1-(His)6; n = 3/concentration. The procedure:
We sought to resolve this discrepancy by performing a competition binding study similar to the conditions of the FP HTS assay by utilizing the F-αIIb probe.
Figure 4 MST competitive binding assay. We selected 200 nM F-αIIb and a CIB1 concentration of 4 μM and tested both compounds. […] Panel (B) highlights the concentration range in which we observe different activities between the two compounds.
The binding affinity of the compounds to the CIB1-(His)6 protein in the presence of αIIb peptide was evaluated using FITC-labeled αIIb as well. Following manufacturer’s recommendation,[66] we first determined a minimum concentration of F-αIIb by performing a titration of the fluorophore (1 μM, 1:2, 8-points; final concentration range of 7.8 nM to 1 μM) in a 10 μL assay volume. Solutions were placed in standard capillaries and evaluated for the fluorescent signal using the Monolith NT.115 instrument. […] CIB1-(His)6 protein was titrated in a 2-fold dilution series (16-points, final concentration range of 15 nM to 500 μM), at a final volume of 12.5 μL. An equal volume of [2×] […] Solutions were placed in standard capillaries, incubated for approximately 1 h, and evaluated for a fluorescent signal with 50% LED excitation power, 20, 40, or 60% MST power (low, medium, high, respectively), MST on-time of 30 s, and off-time of 5 s.
Compounds were titrated in a 2-fold dilution series (16 points, final concentration range of 6.1 nM to 200 μM) and mixed with an equal volume CIB1-(His)6 protein and F-αIIb peptide (final concentrations of 4 μM and 200 nM, respectively). Solutions were incubated for 1 h at RT, then placed in standard capillaries, and evaluated for fluorescent signal (in triplicate) at the following parameters: 50% LED excitation power, 40% MST power, MST on-time of 30 s, and off-time of 5 s using Monolith NT.115 instrument. Dissociation constant (Kd) values were calculated by fitting the thermophoresis signal at 20 s of the thermograph using the MO Affinity Analysis software (Nanotemper Technologies, Munich, Germany) and confirmed using Graphpad Prism 7.

In data set [5] the target is T4, GST-CIB1 : F-αIIb peptide (Homo sapiens, UniProt Q99828).
T4 construct: made in house; host or cells: BL-21 plus RIL cells (E. coli)
T4 sequence (Q99828 1-191): T1 sequence (Q99828 1-191)
Description: FP assay in the presence of glutathione (GSH), thiol reactivity. Format: binding.

Data set [6] is described as follows: In vitro ADME: solubility. The following applies: read-out: Solubility. The data set is classed as physicochemical.

Read-outs that look alike come from different tables or passages of the source.

By Papp is commonly meant the rate of passage across a membrane or cell layer, normalised by area and donor concentration. What is called Kd is the concentration at which binding is half-saturated. What is called IC50 is the point on the concentration scale where inhibition reaches its midpoint. The term EC50 denotes the midpoint of the concentration-response curve. A low value points to a more potent agent. As a reminder, the solubility is the dissolved amount per volume that the medium holds. With `COc1ccccc1C(=O)c1no[n+]([O-])c1C(=O)c1ccccc1OC.O=C(O)C(F)(F)F` [NCGC00351170-01], in data set [1], the “P-selectin (CD62P) exposure” value is listed as “dose-dependent inhibition of platelet activation”. Further, the Papp in data set [2] is 102 ×10⁻⁶ cm/s. Also, the Kd at CIB1-(His)6 was determined as 2.9 µM. In addition, the “CONFIRMATORY SCREEN Confirm?” value in data set [3] (confirmatory screen, YES/NO call) was “YES”. Besides, in data set [3] (confirmatory screen, qHTS curve class, negative sign = inhibitory curve), the “CONFIRMATORY SCREEN Curve Class” value is -1.2. Further, the “CONFIRMATORY SCREEN Efficacy (%)” value in data set [3] (confirmatory screen, negative = inhibition) is -45%. Moreover, the 50% inhibitory concentration (IC50) in data set [3] (confirmatory screen, read-out: CONFIRMATORY SCREEN IC50) was found to be 5.6 µM; in data set [3] (qHTS FP screen hits, Table S2, read-out: IC50), 5 µM; in data set [5] (FP assay in the presence of glutathione (GSH +), read-out: GSH (+) Assay IC50), 1.2 µM; in data set [5] (FP assay without glutathione (GSH -), read-out: GSH (-) Assay IC50), 4 µM. Further, the “Efficacy (%)” value in data set [3] (qHTS FP screen hits, Table S2, negative = inhibition) is on record as -37%. Besides, in data set [3] (qHTS FP screen hits, Table S2, one class per curve where COUNT > 1, negative sign = inhibitory curve), the “Curve Class” value is recorded as -1.2. Besides, the response in data set [4] was half-maximal at 2.1 µM (EC50). The “GSH/CIB1 IC50 ratio” value in data set [5] (ratio of GSH (+) IC50 to GSH (-) IC50) is reported as 0.3. The “GSH Assay Result” value in data set [5] (thiol reactivity call: No change / Active) is given as “No change”. Also, in data set [6], the solubility was > 52 µg/mL.
